Source: the NIST ThermoML archive (doi:10.1021/je400803f)
± gives the expanded uncertainty stated by the source.

Assay: xn = mol fraction of the nth substance listed
Details: 101 kPa, Liquid, Vibrating tube method

CCCCN(C=O)CCCC [N,N-dibutylformamide] + CCCC[N+]1(C)CCCC1.FC(F)(F)C(F)(F)[P-](F)(F)(F)(C(F)(F)C(F)(F)F)C(F)(F)C(F)(F)F
mass density (293.15 K, x2 = 0.0351): 928.01 ± 0.26 kg/m3
mass density (293.15 K, x2 = 0.0697): 972.58 ± 0.26 kg/m3
mass density (293.15 K, x2 = 0.0998): 1008.79 ± 0.26 kg/m3
mass density (293.15 K, x2 = 0.1498): 1064.17 ± 0.3 kg/m3
mass density (293.15 K, x2 = 0.1994): 1114.29 ± 0.33 kg/m3
mass density (293.15 K, x2 = 0.2999): 1204.19 ± 0.41 kg/m3
mass density (293.15 K, x2 = 0.4003): 1281.29 ± 0.47 kg/m3
mass density (293.15 K, x2 = 0.499): 1347.44 ± 0.53 kg/m3
mass density (293.15 K, x2 = 0.5993): 1406.59 ± 0.58 kg/m3
mass density (293.15 K, x2 = 0.6799): 1449.07 ± 0.62 kg/m3
mass density (293.15 K, x2 = 0.7754): 1494.51 ± 0.67 kg/m3
mass density (293.15 K, x2 = 0.8021): 1506.51 ± 0.68 kg/m3
mass density (293.15 K, x2 = 0.9011): 1548.52 ± 0.72 kg/m3
mass density (293.15 K, x2 = 0.949): 1568.08 ± 0.74 kg/m3
mass density (298.15 K, x2 = 0.0351): 923.97 ± 0.26 kg/m3
mass density (298.15 K, x2 = 0.0697): 968.41 ± 0.26 kg/m3
mass density (298.15 K, x2 = 0.0998): 1004.57 ± 0.26 kg/m3
mass density (298.15 K, x2 = 0.1498): 1059.81 ± 0.3 kg/m3
mass density (298.15 K, x2 = 0.1994): 1109.89 ± 0.33 kg/m3
mass density (298.15 K, x2 = 0.2999): 1199.58 ± 0.4 kg/m3
mass density (298.15 K, x2 = 0.4003): 1276.52 ± 0.47 kg/m3
mass density (298.15 K, x2 = 0.499): 1342.55 ± 0.53 kg/m3
mass density (298.15 K, x2 = 0.5993): 1401.54 ± 0.58 kg/m3
mass density (298.15 K, x2 = 0.6799): 1443.87 ± 0.62 kg/m3
mass density (298.15 K, x2 = 0.7754): 1489.34 ± 0.66 kg/m3
mass density (298.15 K, x2 = 0.8021): 1501.2 ± 0.67 kg/m3
mass density (298.15 K, x2 = 0.9011): 1543.24 ± 0.72 kg/m3
mass density (298.15 K, x2 = 0.949): 1562.74 ± 0.74 kg/m3
mass density (303.15 K, x2 = 0.0351): 919.87 ± 0.26 kg/m3
mass density (303.15 K, x2 = 0.0697): 964.18 ± 0.26 kg/m3
mass density (303.15 K, x2 = 0.0998): 1000.33 ± 0.26 kg/m3
mass density (303.15 K, x2 = 0.1498): 1055.39 ± 0.29 kg/m3
mass density (303.15 K, x2 = 0.1994): 1105.41 ± 0.33 kg/m3
mass density (303.15 K, x2 = 0.2999): 1194.89 ± 0.4 kg/m3
mass density (303.15 K, x2 = 0.4003): 1271.65 ± 0.46 kg/m3
mass density (303.15 K, x2 = 0.499): 1337.52 ± 0.52 kg/m3
mass density (303.15 K, x2 = 0.5993): 1396.37 ± 0.57 kg/m3
mass density (303.15 K, x2 = 0.6799): 1438.69 ± 0.61 kg/m3
mass density (303.15 K, x2 = 0.7754): 1483.96 ± 0.66 kg/m3
mass density (303.15 K, x2 = 0.8021): 1495.89 ± 0.67 kg/m3
mass density (303.15 K, x2 = 0.9011): 1537.81 ± 0.71 kg/m3
mass density (303.15 K, x2 = 0.949): 1557.33 ± 0.73 kg/m3
mass density (308.15 K, x2 = 0.0351): 915.81 ± 0.26 kg/m3
mass density (308.15 K, x2 = 0.0697): 960.06 ± 0.26 kg/m3
mass density (308.15 K, x2 = 0.0998): 996.06 ± 0.26 kg/m3
mass density (308.15 K, x2 = 0.1498): 1051.03 ± 0.29 kg/m3
mass density (308.15 K, x2 = 0.1994): 1100.9 ± 0.32 kg/m3
mass density (308.15 K, x2 = 0.2999): 1190.17 ± 0.39 kg/m3
mass density (308.15 K, x2 = 0.4003): 1266.78 ± 0.46 kg/m3
mass density (308.15 K, x2 = 0.499): 1332.49 ± 0.52 kg/m3
mass density (308.15 K, x2 = 0.5993): 1391.2 ± 0.57 kg/m3
mass density (308.15 K, x2 = 0.6799): 1433.45 ± 0.61 kg/m3
mass density (308.15 K, x2 = 0.7754): 1478.61 ± 0.65 kg/m3
mass density (308.15 K, x2 = 0.8021): 1490.51 ± 0.66 kg/m3
mass density (308.15 K, x2 = 0.9011): 1532.31 ± 0.7 kg/m3
mass density (308.15 K, x2 = 0.949): 1551.79 ± 0.72 kg/m3
mass density (313.15 K, x2 = 0.0351): 911.67 ± 0.26 kg/m3
mass density (313.15 K, x2 = 0.0697): 955.82 ± 0.26 kg/m3
mass density (313.15 K, x2 = 0.0998): 991.74 ± 0.26 kg/m3
mass density (313.15 K, x2 = 0.1498): 1046.54 ± 0.29 kg/m3
mass density (313.15 K, x2 = 0.1994): 1096.39 ± 0.32 kg/m3
mass density (313.15 K, x2 = 0.2999): 1185.45 ± 0.39 kg/m3
mass density (313.15 K, x2 = 0.4003): 1261.89 ± 0.45 kg/m3
mass density (313.15 K, x2 = 0.499): 1327.52 ± 0.51 kg/m3
mass density (313.15 K, x2 = 0.5993): 1386.12 ± 0.56 kg/m3
mass density (313.15 K, x2 = 0.6799): 1428.23 ± 0.6 kg/m3
mass density (313.15 K, x2 = 0.7754): 1473.39 ± 0.65 kg/m3
mass density (313.15 K, x2 = 0.8021): 1485.21 ± 0.66 kg/m3
mass density (313.15 K, x2 = 0.9011): 1526.89 ± 0.7 kg/m3
mass density (313.15 K, x2 = 0.949): 1546.31 ± 0.72 kg/m3
mass density (318.15 K, x2 = 0.0351): 907.43 ± 0.26 kg/m3
mass density (318.15 K, x2 = 0.0697): 951.45 ± 0.26 kg/m3
mass density (318.15 K, x2 = 0.0998): 987.31 ± 0.26 kg/m3
mass density (318.15 K, x2 = 0.1498): 1042.09 ± 0.28 kg/m3
mass density (318.15 K, x2 = 0.1994): 1091.73 ± 0.32 kg/m3
mass density (318.15 K, x2 = 0.2999): 1180.61 ± 0.39 kg/m3
mass density (318.15 K, x2 = 0.4003): 1256.88 ± 0.45 kg/m3
mass density (318.15 K, x2 = 0.499): 1322.34 ± 0.51 kg/m3
mass density (318.15 K, x2 = 0.5993): 1380.87 ± 0.56 kg/m3
mass density (318.15 K, x2 = 0.6799): 1422.89 ± 0.6 kg/m3
mass density (318.15 K, x2 = 0.7754): 1467.94 ± 0.64 kg/m3
mass density (318.15 K, x2 = 0.8021): 1479.75 ± 0.65 kg/m3
mass density (318.15 K, x2 = 0.9011): 1521.4 ± 0.69 kg/m3
mass density (318.15 K, x2 = 0.949): 1540.77 ± 0.71 kg/m3
mass density (323.15 K, x2 = 0.0351): 903.16 ± 0.26 kg/m3
mass density (323.15 K, x2 = 0.0697): 947.14 ± 0.26 kg/m3
mass density (323.15 K, x2 = 0.0998): 982.93 ± 0.26 kg/m3
mass density (323.15 K, x2 = 0.1498): 1037.62 ± 0.28 kg/m3
mass density (323.15 K, x2 = 0.1994): 1087.01 ± 0.31 kg/m3
mass density (323.15 K, x2 = 0.2999): 1175.67 ± 0.38 kg/m3
mass density (323.15 K, x2 = 0.4003): 1251.71 ± 0.45 kg/m3
mass density (323.15 K, x2 = 0.499): 1317.03 ± 0.5 kg/m3
mass density (323.15 K, x2 = 0.5993): 1375.47 ± 0.56 kg/m3
mass density (323.15 K, x2 = 0.6799): 1417.48 ± 0.59 kg/m3
mass density (323.15 K, x2 = 0.7754): 1462.42 ± 0.64 kg/m3
mass density (323.15 K, x2 = 0.8021): 1474.28 ± 0.65 kg/m3
mass density (323.15 K, x2 = 0.9011): 1515.91 ± 0.69 kg/m3
mass density (323.15 K, x2 = 0.949): 1535.23 ± 0.71 kg/m3
